Experimental data published in PubChem BioAssay AID2060622 (Molecular Pharmacology Branch, DTP, NCI, 2025).
pIC50: −log10 of the molar value.

Tested on: 242566-281-R-J2-PDC complex spheroid viability
Test: Anticancer human tumor 242566-281-R-J2-PDC patient-derived pancreatic carcinoma cell line growth inhibition [CLK]
Settings: for pIC50: curve of first compound; for viability, T/C: stronger effect = lower value
How it was run: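 Patient-derived tumor cells grown as complex spheroids with HUVEC endothelial cells and mesenchymal stem cells, treated with drug combinations. Concentrations descend in half-log steps from near clinical Cmax, or from 10 microM if Cmax unknown.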

[1] = second compound 0.0316 µM, first compound 0.0316 µM
[2] = second compound 0.0316 µM, first compound 0.1 µM
[3] = second compound 0.0316 µM, first compound 0.316 µM
[4] = second compound 0.0316 µM, first compound 1 µM
[5] = second compound 0.1 µM, first compound 0.0316 µM
[6] = second compound 0.1 µM, first compound 0.1 µM
[7] = second compound 0.1 µM, first compound 0.316 µM
[8] = second compound 0.1 µM, first compound 1 µM
[9] = second compound 0.316 µM, first compound 0.0316 µM
[10] = second compound 0.316 µM, first compound 0.1 µM
[11] = second compound 0.316 µM, first compound 0.316 µM
[12] = second compound 0.316 µM, first compound 1 µM
[13] = second compound 1 µM, first compound 0.0316 µM
[14] = second compound 1 µM, first compound 0.1 µM
[15] = second compound 1 µM, first compound 0.316 µM
[16] = second compound 1 µM, first compound 1 µM
[17] = second compound 3.16 µM, first compound 0.0316 µM
[18] = second compound 3.16 µM, first compound 0.1 µM
[19] = second compound 3.16 µM, first compound 0.316 µM
[20] = second compound 3.16 µM, first compound 1 µM
[21] = second compound 10 µM, first compound 0.0316 µM
[22] = second compound 10 µM, first compound 0.1 µM
[23] = second compound 10 µM, first compound 0.316 µM
[24] = second compound 10 µM, first compound 1 µM
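Note: spheroids exposed to compounds for 7 days before readout.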
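Throughout, for viability, T/C: 100% = DMSO vehicle control wells.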

In the case of C=CC(=O)Nc1cc(Nc2nccc(-c3cn(C)c4ccccc34)n2)c(OC)cc1N(C)CCN(C)C + CN1CCN(c2cc(C(=O)Nc3cc4cc(-c5cnn(C)c5)ccc4cn3)ccn2)CC1, the pIC50 (second compound 0.0316 µM) was under 6.52, the pIC50 (second compound 0.1 µM) was under 6.52 and the pIC50 (second compound 0.316 µM) was over 9.02. For the same compound, the pIC50 (second compound 1 µM) was over 9.02, the pIC50 (second compound 3.16 µM) was over 9.02 and the pIC50 (second compound 10 µM) was over 9.02. It also gave a viability, T/C (second compound 0.0316 µM, first compound 0.000949 µM) of 92.7%, a viability, T/C (second compound 0.0316 µM, first compound 0.003 µM) of 103% and a viability, T/C (second compound 0.0316 µM, first compound 0.00949 µM) of 91.8%. For the same compound, the viability, T/C (second compound 0.0316 µM, first compound 0.03 µM) was 96.7%, the viability, T/C (second compound 0.0316 µM, first compound 0.0949 µM) was 95.1% and the viability, T/C (second compound 0.0316 µM, first compound 0.3 µM) was 71.8%. For the same compound, the viability, T/C (second compound 0.1 µM, first compound 0.000949 µM) was 102%, the viability, T/C (second compound 0.1 µM, first compound 0.003 µM) was 85.8% and the viability, T/C (second compound 0.1 µM, first compound 0.00949 µM) was 84.2%. For the same compound, the viability, T/C (second compound 0.1 µM, first compound 0.03 µM) was 73.6%, the viability, T/C (second compound 0.1 µM, first compound 0.0949 µM) was 79.8% and the viability, T/C (second compound 0.1 µM, first compound 0.3 µM) was 62.9%. It also gave a viability, T/C (second compound 0.316 µM, first compound 0.000949 µM) of 32.1%, a viability, T/C (second compound 0.316 µM, first compound 0.003 µM) of 33.7% and a viability, T/C (second compound 0.316 µM, first compound 0.00949 µM) of 27.7%. It also gave a viability, T/C (second compound 0.316 µM, first compound 0.03 µM) of 23%, a viability, T/C (second compound 0.316 µM, first compound 0.0949 µM) of 25.2% and a viability, T/C (second compound 0.316 µM, first compound 0.3 µM) of 20.1%. For the same compound, the viability, T/C (second compound 1 µM, first compound 0.000949 µM) was 4.67%, the viability, T/C (second compound 1 µM, first compound 0.003 µM) was 4.02% and the viability, T/C (second compound 1 µM, first compound 0.00949 µM) was 4.33%. The viability, T/C (second compound 1 µM, first compound 0.03 µM) was 3.28%, the viability, T/C (second compound 1 µM, first compound 0.0949 µM) was 2.72% and the viability, T/C (second compound 1 µM, first compound 0.3 µM) was 2.12%. It also gave a viability, T/C (second compound 3.16 µM, first compound 0.000949 µM) of 6.9%, a viability, T/C (second compound 3.16 µM, first compound 0.003 µM) of 6.41% and a viability, T/C (second compound 3.16 µM, first compound 0.00949 µM) of 6.23%. It also gave a viability, T/C (second compound 3.16 µM, first compound 0.03 µM) of 6.27%, a viability, T/C (second compound 3.16 µM, first compound 0.0949 µM) of 5.66% and a viability, T/C (second compound 3.16 µM, first compound 0.3 µM) of 4.09%. For the same compound, the viability, T/C (second compound 10 µM, first compound 0.000949 µM) was 2.35%, the viability, T/C (second compound 10 µM, first compound 0.003 µM) was 1.98% and the viability, T/C (second compound 10 µM, first compound 0.00949 µM) was 1.72%. The viability, T/C (second compound 10 µM, first compound 0.03 µM) was 2.34%, the viability, T/C (second compound 10 µM, first compound 0.0949 µM) was 2.25% and the viability, T/C (second compound 10 µM, first compound 0.3 µM) was 1.2%.

CC(Nc1ccc2c(c1)OCCn1cc(N3C(=O)OCC3C(F)F)nc1-2)C(N)=O (stereo unspecified) + CN1CCN(c2cc(C(=O)Nc3cc4cc(-c5cnn(C)c5)ccc4cn3)ccn2)CC1 gave a pIC50 (second compound 0.0316 µM) of 6.08, a pIC50 (second compound 0.1 µM) of 6.37 and a pIC50 (second compound 0.316 µM) of over 7.50. The pIC50 (second compound 1 µM) was over 7.50, the pIC50 (second compound 3.16 µM) was over 7.50 and the pIC50 (second compound 10 µM) was over 7.50. The viability, T/C [1] was 98.6%, the viability, T/C [2] was 85.9% and the viability, T/C [3] was 66.1%. It also gave a viability, T/C [4] of 47.1%, a viability, T/C (second compound 0.0316 µM, first compound 3.16 µM) of 30.2% and a viability, T/C (second compound 0.0316 µM, first compound 10 µM) of 19.6%. The viability, T/C [5] was 89.7%, the viability, T/C [6] was 71.6% and the viability, T/C [7] was 54.1%. It also gave a viability, T/C [8] of 37.7%, a viability, T/C (second compound 0.1 µM, first compound 3.16 µM) of 27.5% and a viability, T/C (second compound 0.1 µM, first compound 10 µM) of 15.9%. It also gave a viability, T/C [9] of 30.8%, a viability, T/C [10] of 28.4% and a viability, T/C [11] of 24%. The viability, T/C [12] was 16.5%, the viability, T/C (second compound 0.316 µM, first compound 3.16 µM) was 11.1% and the viability, T/C (second compound 0.316 µM, first compound 10 µM) was 6.49%. For the same compound, the viability, T/C [13] was 3.7%, the viability, T/C [14] was 3.4% and the viability, T/C [15] was 2.95%. It also gave a viability, T/C [16] of 2.95%, a viability, T/C (second compound 1 µM, first compound 3.16 µM) of 2.35% and a viability, T/C (second compound 1 µM, first compound 10 µM) of 1.83%. The viability, T/C [17] was 6.09%, the viability, T/C [18] was 5.94% and the viability, T/C [19] was 5.25%. For the same compound, the viability, T/C [20] was 4.35%, the viability, T/C (second compound 3.16 µM, first compound 3.16 µM) was 3.81% and the viability, T/C (second compound 3.16 µM, first compound 10 µM) was 3.86%. It also gave a viability, T/C [21] of 2.15%, a viability, T/C [22] of 2.04% and a viability, T/C [23] of 1.6%. For the same compound, the viability, T/C [24] was 1.88%, the viability, T/C (second compound 10 µM, first compound 3.16 µM) was 1.85% and the viability, T/C (second compound 10 µM, first compound 10 µM) was 1.04%.

In the case of CCN1CCN(Cc2ccc(Nc3ncc(F)c(-c4cc(F)c5nc(C)n(C(C)C)c5c4)n3)nc2)CC1 + CN1CCN(c2cc(C(=O)Nc3cc4cc(-c5cnn(C)c5)ccc4cn3)ccn2)CC1, the pIC50 (second compound 0.0316 µM) was under 6.00, the pIC50 (second compound 0.1 µM) was under 6.00 and the pIC50 (second compound 0.316 µM) was over 8.50. It also gave a pIC50 (second compound 1 µM) of over 8.50, a pIC50 (second compound 3.16 µM) of over 8.50 and a pIC50 (second compound 10 µM) of over 8.50. For the same compound, the viability, T/C (second compound 0.0316 µM, first compound 0.00316 µM) was 89.9%, the viability, T/C (second compound 0.0316 µM, first compound 0.01 µM) was 109% and the viability, T/C [1] was 101%. For the same compound, the viability, T/C [2] was 109%, the viability, T/C [3] was 122% and the viability, T/C [4] was 138%. It also gave a viability, T/C (second compound 0.1 µM, first compound 0.00316 µM) of 91.7%, a viability, T/C (second compound 0.1 µM, first compound 0.01 µM) of 83.6% and a viability, T/C [5] of 95.5%. For the same compound, the viability, T/C [6] was 96.3%, the viability, T/C [7] was 122% and the viability, T/C [8] was 123%. The viability, T/C (second compound 0.316 µM, first compound 0.00316 µM) was 39.4%, the viability, T/C (second compound 0.316 µM, first compound 0.01 µM) was 40.8% and the viability, T/C [9] was 48.7%. The viability, T/C [10] was 54.3%, the viability, T/C [11] was 69.4% and the viability, T/C [12] was 61.1%. For the same compound, the viability, T/C (second compound 1 µM, first compound 0.00316 µM) was 5.41%, the viability, T/C (second compound 1 µM, first compound 0.01 µM) was 4.89% and the viability, T/C [13] was 5.53%. For the same compound, the viability, T/C [14] was 6.44%, the viability, T/C [15] was 9.19% and the viability, T/C [16] was 9.16%. For the same compound, the viability, T/C (second compound 3.16 µM, first compound 0.00316 µM) was 6.93%, the viability, T/C (second compound 3.16 µM, first compound 0.01 µM) was 7.07% and the viability, T/C [17] was 6.34%. It also gave a viability, T/C [18] of 7.18%, a viability, T/C [19] of 8.35% and a viability, T/C [20] of 8.64%. It also gave a viability, T/C (second compound 10 µM, first compound 0.00316 µM) of 2.36%, a viability, T/C (second compound 10 µM, first compound 0.01 µM) of 1.58% and a viability, T/C [21] of 1.75%. For the same compound, the viability, T/C [22] was 1.54%, the viability, T/C [23] was 1.24% and the viability, T/C [24] was 0.71%.
